Results taken from article PMC3530194 (Bioorganic & medicinal chemistry letters, 2012).
Each block holds one compound with its values, some of them ahead of it.

Legend:
[1] = type: in vitro ADME, bovine
LS174T indicator cells = type: cell-based; settings: human cells (LS174T), over the first 12 hours; Fig. 3A
[2] = cited from earlier work
[3] = Fig. 2E; for surface expression of azido-modified sialic acids: after 24 hours of FBS pre-treatment; for loss of surface azido-sialic acid signal: first four hours of FBS treatment
[4] = type: in vitro ADME, bovine; settings: after 24 hours of serum pretreatment; Fig. 2D
[5] = test system: hereditary inclusion body myopathy mouse model; settings: cited from earlier work

SMILES: CCCC(=O)OCC1OC(OC(=O)CCC)C(NC(C)=O)[C@@H](OC(=O)CCC)[C@@H]1OC(=O)CCC (stereo partly shown) [Bu4ManNAc]
reversion of analog-enhanced sialic acid production in indicator cells ([1]; lower concentrations of FBS (10% or 25%), Fig. 2B): did not result in a statistically significant reversion | increased sialic acid production compared among analogs (LS174T indicator cells): statistically identical levels

reduction in analog-enhanced sialic acid production ([1]; after four hours of serum treatment, Fig. 2C): only a relatively minor reduction
SMILES: CCCC(=O)OC1O[C@H](CO)[C@@H](OC(=O)CCC)[C@H](OC(=O)CCC)[C@@H]1NC(C)=O (stereo partly shown) [1,3,4-O-Bu3ManNAc]
increased sialic acid production compared among analogs (LS174T indicator cells): statistically identical levels | side effects such as cytotoxicity [2]: negligible

SMILES: CCCC(=O)OC[C@H]1OC(OC(=O)CCC)[C@@H](NC(=O)CN=[N+]=[N-])[C@@H](OC(=O)CCC)[C@@H]1OC(=O)CCC (stereo partly shown) [Bu4ManNAz]
surface expression of azido-modified sialic acids [3]: reduction, but not complete reversal | loss of surface azido-sialic acid signal [3]: refractory to a loss of signal

SMILES: CCCC(=O)OC[C@H]1OC(O)[C@@H](NC(C)=O)[C@@H](OC(=O)CCC)[C@@H]1OC(=O)CCC (stereo partly shown) [3,4,6-O-Bu3ManNAc]
loss of analog-enhanced cell growth inhibition [4]: complete reversal | increased sialic acid production compared among analogs (LS174T indicator cells): statistically identical levels

SMILES: CC(=O)OC[C@H]1OC(OC(C)=O)[C@@H](NC(=O)CN=[N+]=[N-])[C@@H](OC(C)=O)[C@@H]1OC(C)=O (stereo partly shown) [Ac4ManNAz, reference compound]
surface expression of azido-modified sialic acids [3]: reduction, but not complete reversal | loss of surface azido-sialic acid signal [3]: refractory to a loss of signal

SMILES: CC(=O)N[C@@H]1C(OC(C)=O)O[C@H](COC(C)=O)[C@@H](OC(C)=O)[C@@H]1OC(C)=O (stereo partly shown) [Ac4ManNAc, reference compound]
serum inactivation of analog, read as sialic acid production in indicator cells ([1]; FBS (100% serum) pre-incubation, Fig. 2A): refractory to serum inactivation | time of peak sialic acid production after administration [5]: peaked as soon as four hours after administration
